From patent US9493468B2, “Antifungal 5,6-dihydro-4H-pyrrolo[1,2-a][1,4]benzo-diazepines and 6H-pyrrolo[1,2-a][1,4]benzodiazepines substituted with heterocyclic derivatives” (Janssen Pharmaceutica NV, priority 2011, dated 2016)

What was measured:
Type in all cases: cell-based
Aspergillus fumigatus = test: Antifungal activity in vitro, resazurin growth inhibition: Aspergillus fumigatus (B42928)
Protocol: (§1) The standard susceptibility screen is performed in 96-well plates (U-bottom, Greiner Bio-One). Serial dilutions (2-fold or 4-fold) of 20 mM compound stock solutions are made in 100% DMSO, followed by an intermediate dilution step in water. These serial dilutions (10 μl) are then spotted onto test-plates that can be stored in the dark at 4° C. for a maximum period of 2 weeks. An adequate broad dose-range is included with 64 μM as the highest in-test concentration. The culture medium RPMI-1640 is supplemented with L-glutamine, 2% glucose and buffered with 3-(N-morpholino)-propanesulfonic acid (MOPS) at pH 7.0±0.1.
(§2) The different fungal species/isolates (Table 3a) are cryopreserved and 1/1000 diluted in medium just prior to use. A standard inoculum of 200 μl containing 10^3 colony-forming unit (cfu) is then added to each well. A positive control (100% growth=fungal culture without antifungal) and a negative control (0% growth ═RPMI-MOPS medium) are included on each plate. Optimal incubation time and temperature are dependent on the fungal species and vary from 24 h for yeasts (37° C.) to one week or more for dermatophytes (27° C.). Inhibition of fungal growth is measured after adding 10 μl of 0.005% (w/v) resazurin (Sigma Aldrich) to each well, based on the principle that living cells convert the non-fluorescent blue resazurin into the pink and fluorescent resorufin, allowing fluorimetric reading (λex 550 nm and λem 590 nm) after an additional incubation period (‘resa’ time mentioned in Table 3a).

Cryptococcus neoformans = test: Antifungal activity in vitro, resazurin growth inhibition: Cryptococcus neoformans (B66663)
Protocol: as §1, §2

Candida parapsilosis = test: Antifungal activity in vitro, resazurin growth inhibition: Candida parapsilosis (B66126)
Protocol: as §1, §2

Microsporum canis = test: Antifungal activity in vitro, resazurin growth inhibition: Microsporum canis (B68128)
Protocol: as §1, §2

[1] = test system: Trichophyton mentagrophytes; test: Antifungal activity in vitro, resazurin growth inhibition: Trichophyton mentagrophytes (B70554)
Protocol: as §1, §2

Sporothrix schenkii = test: Antifungal activity in vitro, resazurin growth inhibition: Sporothrix schenkii (B62482)
Protocol: as §1, §2

Trichophyton rubrum = test: Antifungal activity in vitro, resazurin growth inhibition: Trichophyton rubrum (B68183)
Protocol: as §1, §2

SMILES | Inf. E: Aspergillus fumigatus B42928, pIC50 (Aspergillus fumigatus) | Inf. F: Cryptococcus neoformans B66663, pIC50 (Cryptococcus neoformans) | Inf. D: Candida parapsilosis B66126, pIC50 (Candida parapsilosis) | Inf. B: Microsporum canis B68128, pIC50 (Microsporum canis) | Inf. G: Trichophyton mentagrophytes B70554, pIC50 [1] | Inf. A: Sporothrix schenkii B62482, pIC50 (Sporothrix schenkii) | Inf. C: Trichophyton rubrum B68183, pIC50 (Trichophyton rubrum)
Cc1cc(C2=NCc3c(Cl)cccc3-n3cccc32)ccn1 [Compound 96] | 4.40 | <4.19 | <4.19 | 4.80 | 5.00 | <4.19 | 5.10
Fc1cccc2c1CN=C(c1ccc(C(F)(F)F)nc1)c1cccn1-2 [Compound 90] | <4.19 | <4.19 | <4.19 | 5.42 | 5.33 | <4.19 | 6.19
Cc1ncc(C2=NCc3c(Cl)cccc3-n3cccc32)cn1 [Compound 100] | <4.19 | <4.19 | <4.19 | 4.21 | <4.19 | <4.19 | <4.19
CCn1cc(C2=NCc3cc(Cl)cc(Cl)c3-n3cccc32)cn1 [Compound 62] | 4.70 | 5.15 | 4.23 | 4.59 | 4.86 | 4.51 | 5.22
c1ccc2c(c1)CN=C(c1ccc3ncsc3c1)c1cccn1-2 [Compound 182] | 4.94 | 4.91 | 4.58 | 5.52 | 5.87 | <4.49 | 6.70
Cc1cc(C2=NCc3ccccc3-n3cccc32)ccn1 [Compound 95] | <4.49 | <4.49 | <4.49 | <4.49 | 4.58 | <4.49 | 5.17
Clc1cccc2c1CN=C(c1ccc3nsnc3c1)c1cccn1-2 [Compound 194] | <4.19 | <4.19 | <4.19 | <4.19 | 6.06 | <4.19 | 6.82
Fc1cccc2c1CN=C(c1ccc3scnc3c1)c1cccn1-2 [Compound 189] | 5.02 | 5.06 | <4.19 | 5.29 | 5.52 | <4.19 | 6.05
Cc1ncc(C2NCc3c(Cl)cccc3-n3cccc32)cn1.Cl (racemic) [Compound 25] | <4.19 | <4.19 | <4.19 | 4.43 | <4.19 | <4.19 | 4.19
Cc1ccc(Cl)c2c1-n1cccc1C(c1cc3ccccc3s1)=NC2 [Compound 169] | <4.19 | <4.19 | <4.19 | 5.00 | <4.19 | <4.19 | 6.01
Cc1ccc2oc(C3=NCc4ccc(Cl)cc4-n4cccc43)cc2c1 [Compound 135] | <4.19 | 4.54 | <4.19 | 4.41 | <4.19 | <4.19 | 5.91
FC(F)(F)c1cc(C2=NCc3ccc(Cl)cc3-n3cccc32)ccn1 [Compound 98] | 4.49 | 5.03 | 5.06 | <4.19 | 4.48 | 4.49 | 4.47
Cl.Clc1cccc2c1CNC(c1nc3ccccc3s1)c1cccn1-2 (racemic) [Compound 59] | <4.19 | <4.19 | <4.19 | 6.22 | 6.00 | 4.85 | 6.47
FC(F)(F)c1ncc(C2=NCc3ccccc3-n3cccc32)cn1 [Compound 101] | <4.19 | <4.19 | <4.19 | 4.56 | 5.57 | <4.19 | 5.23
Cc1nc2ccc(C3NCc4c(Cl)cccc4-n4cccc43)cc2o1.Cl (racemic) [Compound 50] | <4.19 | <4.19 | <4.19 | 4.56 | <4.19 | <4.19 | 4.49
Cc1ccc(Cl)c2c1-n1cccc1C(c1cc3ccccc3s1)NC2.Cl (racemic) [Compound 57] | <4.19 | <4.19 | <4.19 | 5.24 | <4.19 | <4.19 | 5.10
Clc1cccc2c1CN=C(c1ccc3c(Cl)coc3c1)c1cccn1-2 [Compound 156] | 4.48 | 4.51 | <4.19 | <4.19 | 4.49 | <4.19 | <4.19
Cl.Clc1cccc2c1CNC(c1ccc3scc(Cl)c3c1)c1cccn1-2 (racemic) [Compound 58] | 4.48 | 4.58 | <4.19 | 5.08 | 5.09 | <4.19 | 6.29
